Results as given in US6984649B1, “Pyridine derivatives” (Bayer Aktiengesellschaft, priority 2000, dated 2006).
Where a name gives a salt, the structure may show the parent alone.

Key:
Jurkat T cells = test: IL-2 production in Jurkat T cells in response to anti-CD3/anti-CD28 antibody stimulation; type: cell-based; conditions: Homo sapiens, read-out: Cellular activity grade (Jurkat) (Cellular IC50)
[1] = tested on: A549 human lung epithelium cell line; test: RANTES production in response to TNF-α from A549 cells; type: cell-based; conditions: Homo sapiens, A549, A549 cells, 100 ng/ml TNF-α, read-out: Cellular activity grade (A549) (Cellular IC50)
How it was run: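 Cells (4×10^4/well) in D-MEM/10% FCS preincubated 1 h at 37 °C with compound in 1% DMSO, then stimulated with 100 ng/ml TNF-α for 24 h. Supernatant RANTES quantified by Eu-labelled sandwich immunoassay (time-resolved fluorescence, ex 340/em 615 nm) against recombinant human RANTES standard.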

SMILES | IC50 (Jurkat T cells) | IC50 [1]
N#Cc1c(C2CCCNC2)cc(-c2ccccc2O)nc1NCc1ccccc1 (centres unmarked) [Example 4-1, 2-(benzylamino)-6-(2-hydroxyphenyl)-4-(3-piperidinyl)nicotinonitrile hydrochloride] | 1 to 10 µM | 1 to 10 µM
Cc1c(C2CCCNC2)cc(-c2ccccc2O)nc1N (centres unmarked) [Example 14-1, 2-[6-amino-5-methyl-4-(3-piperidinyl)-2-pyridinyl]phenol hydrochloride] | 1 to 10 µM | < 1 µM
O=C1Nc2nc(-c3ccccc3O)cc(C3CCCNC3)c2CO1 (centres unmarked) [Example 18-2, 7-(2-hydroxyphenyl)-5-(3-piperidinyl)-1,4-dihydro-2H-pyrido[2,3-d][1,3]oxazin-2-one hydrochloride] | 1 to 10 µM | < 1 µM
N#Cc1c(C2CCCNC2)cc(-c2ccccc2O)nc1N (centres unmarked) [Example 1-1, 2-amino-6-(2-hydroxyphenyl)-4-(3-piperidinyl)-nicotinonitrile hydrochloride] | < 1 µM | < 1 µM
